According to ChEMBL document CHEMBL5360540, “Antitumor effect of 3-(quinolin-2-ylmethylene)-4,6-dimethyl-5-hydroxy-7-azaoxindole down-regulating the Gas6-Axl axis” (Eur J Med Chem, 2023):

Legend:
[1] = biological target: Macrophage colony-stimulating factor 1 receptor (Homo sapiens, UniProt P07333); test: Inhibition of human CSF1R using MEK1 as substrate incubated for 40 mins by gamma33P-ATP based scintillation counter analysis
[2] = biological target: Platelet-derived growth factor receptor beta (Homo sapiens, UniProt P09619); test: Inhibition of human PDGFRbeta using MEK1 as substrate incubated for 40 mins by gamma33P-ATP based scintillation counter analysis
Sequence of Platelet-derived growth factor receptor beta (P09619 whole entry): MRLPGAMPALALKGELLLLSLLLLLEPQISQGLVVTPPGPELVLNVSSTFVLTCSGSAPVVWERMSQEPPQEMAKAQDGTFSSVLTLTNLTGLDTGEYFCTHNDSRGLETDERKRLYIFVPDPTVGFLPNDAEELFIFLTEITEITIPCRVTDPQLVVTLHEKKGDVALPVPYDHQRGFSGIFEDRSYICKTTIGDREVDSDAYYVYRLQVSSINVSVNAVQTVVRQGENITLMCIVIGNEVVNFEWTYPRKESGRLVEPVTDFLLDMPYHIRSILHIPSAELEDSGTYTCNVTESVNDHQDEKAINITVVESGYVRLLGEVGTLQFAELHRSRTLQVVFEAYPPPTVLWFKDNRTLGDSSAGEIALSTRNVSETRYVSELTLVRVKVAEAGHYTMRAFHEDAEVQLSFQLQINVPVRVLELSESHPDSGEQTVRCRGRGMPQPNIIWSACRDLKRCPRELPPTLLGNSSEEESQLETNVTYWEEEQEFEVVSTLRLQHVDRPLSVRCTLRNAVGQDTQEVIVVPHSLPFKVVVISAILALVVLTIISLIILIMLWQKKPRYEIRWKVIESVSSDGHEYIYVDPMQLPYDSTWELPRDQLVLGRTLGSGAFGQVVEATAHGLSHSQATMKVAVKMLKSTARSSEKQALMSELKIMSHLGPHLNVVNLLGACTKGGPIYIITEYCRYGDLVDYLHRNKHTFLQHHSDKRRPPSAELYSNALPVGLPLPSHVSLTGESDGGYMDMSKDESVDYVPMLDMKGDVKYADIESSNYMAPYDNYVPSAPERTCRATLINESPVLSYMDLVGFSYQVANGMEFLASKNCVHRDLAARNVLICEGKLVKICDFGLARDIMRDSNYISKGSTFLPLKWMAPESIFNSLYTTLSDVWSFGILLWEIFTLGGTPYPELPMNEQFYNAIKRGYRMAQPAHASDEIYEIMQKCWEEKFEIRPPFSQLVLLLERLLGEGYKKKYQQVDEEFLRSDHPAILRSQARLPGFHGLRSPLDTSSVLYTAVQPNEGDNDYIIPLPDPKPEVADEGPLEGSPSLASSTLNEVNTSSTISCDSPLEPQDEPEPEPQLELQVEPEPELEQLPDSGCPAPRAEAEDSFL

[3] = biological target: Vascular endothelial growth factor receptor 2 (Homo sapiens, UniProt P35968); test: Inhibition of human VEGFR2 using MEK1 as substrate incubated for 40 mins by gamma33P-ATP based scintillation counter analysis
PANC-1 = test: Antitumor activity against human PANC-1 cells xenografted in BALB/c nude mouse assessed as animal survival rate at 3 mg/kg, ip administered 6 times a week and measured for 100 days; format: functional; conditions: PANC-1, 2400 h, time 100 day
[4] = biological target: T1, Receptor-type tyrosine-protein kinase FLT3 (Homo sapiens, UniProt P36888); test: Inhibition of human FLT3 using MEK1 as substrate incubated for 40 mins by gamma33P-ATP based scintillation counter analysis
T1 sequence (P36888 whole entry): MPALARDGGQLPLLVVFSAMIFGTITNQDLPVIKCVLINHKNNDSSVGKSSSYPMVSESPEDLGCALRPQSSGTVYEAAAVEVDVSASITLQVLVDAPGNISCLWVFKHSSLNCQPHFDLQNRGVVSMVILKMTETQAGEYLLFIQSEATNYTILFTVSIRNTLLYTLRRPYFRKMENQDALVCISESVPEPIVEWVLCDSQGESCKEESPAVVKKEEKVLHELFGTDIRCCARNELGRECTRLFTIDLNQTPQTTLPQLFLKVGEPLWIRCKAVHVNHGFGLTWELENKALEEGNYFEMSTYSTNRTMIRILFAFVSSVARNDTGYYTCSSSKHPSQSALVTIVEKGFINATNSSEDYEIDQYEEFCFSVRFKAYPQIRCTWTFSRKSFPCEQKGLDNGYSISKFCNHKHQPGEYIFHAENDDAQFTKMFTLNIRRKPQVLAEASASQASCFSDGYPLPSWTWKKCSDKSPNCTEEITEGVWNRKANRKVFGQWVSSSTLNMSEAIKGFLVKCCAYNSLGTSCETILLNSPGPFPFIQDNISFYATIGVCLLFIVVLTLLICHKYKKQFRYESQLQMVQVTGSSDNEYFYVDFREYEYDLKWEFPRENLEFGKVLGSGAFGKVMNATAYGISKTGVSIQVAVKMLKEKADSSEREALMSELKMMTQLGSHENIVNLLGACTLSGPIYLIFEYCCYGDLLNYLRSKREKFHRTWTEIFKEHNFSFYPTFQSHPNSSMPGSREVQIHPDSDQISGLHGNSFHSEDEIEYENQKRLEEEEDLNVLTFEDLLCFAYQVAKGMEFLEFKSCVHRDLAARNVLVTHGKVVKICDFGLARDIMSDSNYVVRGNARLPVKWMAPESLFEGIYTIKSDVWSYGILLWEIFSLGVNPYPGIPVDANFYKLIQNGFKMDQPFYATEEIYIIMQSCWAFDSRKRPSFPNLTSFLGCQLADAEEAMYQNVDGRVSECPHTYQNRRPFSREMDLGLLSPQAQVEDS

[5] = biological target: Mast/stem cell growth factor receptor Kit (Homo sapiens, UniProt P10721); test: Inhibition of human c-Kit using MEK1 as substrate incubated for 40 mins by gamma33P-ATP based scintillation counter analysis
Sequence of Mast/stem cell growth factor receptor Kit (P10721 whole entry): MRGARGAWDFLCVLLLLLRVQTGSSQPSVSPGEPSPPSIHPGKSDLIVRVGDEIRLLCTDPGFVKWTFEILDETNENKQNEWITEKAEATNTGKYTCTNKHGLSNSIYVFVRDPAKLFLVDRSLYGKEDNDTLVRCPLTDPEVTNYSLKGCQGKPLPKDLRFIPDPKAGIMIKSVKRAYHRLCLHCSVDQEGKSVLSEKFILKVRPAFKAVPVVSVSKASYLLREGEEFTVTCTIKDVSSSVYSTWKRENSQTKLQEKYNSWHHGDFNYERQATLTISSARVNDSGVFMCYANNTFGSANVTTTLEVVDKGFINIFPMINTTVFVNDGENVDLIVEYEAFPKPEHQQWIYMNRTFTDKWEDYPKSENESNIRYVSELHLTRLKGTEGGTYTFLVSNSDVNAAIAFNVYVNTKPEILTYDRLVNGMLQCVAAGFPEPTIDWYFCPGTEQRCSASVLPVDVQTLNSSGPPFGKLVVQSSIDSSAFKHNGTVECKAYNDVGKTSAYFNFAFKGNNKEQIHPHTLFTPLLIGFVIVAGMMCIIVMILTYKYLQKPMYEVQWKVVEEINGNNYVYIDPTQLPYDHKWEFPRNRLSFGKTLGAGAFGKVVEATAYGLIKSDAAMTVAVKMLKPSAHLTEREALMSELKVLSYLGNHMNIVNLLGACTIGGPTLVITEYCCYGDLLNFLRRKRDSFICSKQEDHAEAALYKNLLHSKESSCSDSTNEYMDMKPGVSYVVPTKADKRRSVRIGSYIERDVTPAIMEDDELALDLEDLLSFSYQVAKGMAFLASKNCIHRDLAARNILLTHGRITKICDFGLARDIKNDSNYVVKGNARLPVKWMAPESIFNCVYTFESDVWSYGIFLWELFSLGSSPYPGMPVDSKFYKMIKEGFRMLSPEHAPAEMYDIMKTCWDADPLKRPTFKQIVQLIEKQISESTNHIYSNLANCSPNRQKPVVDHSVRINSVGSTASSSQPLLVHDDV

[6] = biological target: Epidermal growth factor receptor (Homo sapiens, UniProt P00533); test: Inhibition of human EGFR using MEK1 as substrate incubated for 40 mins by gamma33P-ATP based scintillation counter analysis
Sequence of Epidermal growth factor receptor (P00533 whole entry): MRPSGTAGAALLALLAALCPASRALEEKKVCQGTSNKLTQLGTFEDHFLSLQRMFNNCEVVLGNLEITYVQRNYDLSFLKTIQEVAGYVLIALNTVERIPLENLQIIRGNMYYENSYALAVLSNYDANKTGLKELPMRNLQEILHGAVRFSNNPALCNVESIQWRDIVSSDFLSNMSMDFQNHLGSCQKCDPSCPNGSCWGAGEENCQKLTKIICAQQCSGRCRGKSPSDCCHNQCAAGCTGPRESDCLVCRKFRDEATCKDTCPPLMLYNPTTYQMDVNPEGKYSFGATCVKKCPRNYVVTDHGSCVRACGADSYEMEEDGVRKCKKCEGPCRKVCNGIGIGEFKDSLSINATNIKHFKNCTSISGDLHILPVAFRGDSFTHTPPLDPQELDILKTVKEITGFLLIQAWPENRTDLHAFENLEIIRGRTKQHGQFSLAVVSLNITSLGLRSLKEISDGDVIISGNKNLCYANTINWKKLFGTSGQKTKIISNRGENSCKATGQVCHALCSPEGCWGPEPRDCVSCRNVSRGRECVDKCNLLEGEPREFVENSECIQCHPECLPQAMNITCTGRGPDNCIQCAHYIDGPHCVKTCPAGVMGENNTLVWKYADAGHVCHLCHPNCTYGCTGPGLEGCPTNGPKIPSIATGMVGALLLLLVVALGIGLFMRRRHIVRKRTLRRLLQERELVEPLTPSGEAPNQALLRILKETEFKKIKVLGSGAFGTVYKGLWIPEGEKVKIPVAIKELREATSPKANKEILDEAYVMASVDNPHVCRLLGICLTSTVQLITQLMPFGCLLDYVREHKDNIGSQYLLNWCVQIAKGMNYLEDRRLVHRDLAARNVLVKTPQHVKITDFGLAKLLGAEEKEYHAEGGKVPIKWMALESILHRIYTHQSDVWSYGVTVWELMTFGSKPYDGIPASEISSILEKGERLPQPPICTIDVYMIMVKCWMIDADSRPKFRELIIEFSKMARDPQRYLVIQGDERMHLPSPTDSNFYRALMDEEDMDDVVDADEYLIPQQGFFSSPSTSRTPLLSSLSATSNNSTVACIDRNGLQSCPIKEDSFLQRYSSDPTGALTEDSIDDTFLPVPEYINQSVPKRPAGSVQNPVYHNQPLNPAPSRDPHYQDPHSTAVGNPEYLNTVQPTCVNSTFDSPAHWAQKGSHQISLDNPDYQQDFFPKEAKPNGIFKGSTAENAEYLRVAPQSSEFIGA

Sequence of Macrophage colony-stimulating factor 1 receptor (P07333 whole entry): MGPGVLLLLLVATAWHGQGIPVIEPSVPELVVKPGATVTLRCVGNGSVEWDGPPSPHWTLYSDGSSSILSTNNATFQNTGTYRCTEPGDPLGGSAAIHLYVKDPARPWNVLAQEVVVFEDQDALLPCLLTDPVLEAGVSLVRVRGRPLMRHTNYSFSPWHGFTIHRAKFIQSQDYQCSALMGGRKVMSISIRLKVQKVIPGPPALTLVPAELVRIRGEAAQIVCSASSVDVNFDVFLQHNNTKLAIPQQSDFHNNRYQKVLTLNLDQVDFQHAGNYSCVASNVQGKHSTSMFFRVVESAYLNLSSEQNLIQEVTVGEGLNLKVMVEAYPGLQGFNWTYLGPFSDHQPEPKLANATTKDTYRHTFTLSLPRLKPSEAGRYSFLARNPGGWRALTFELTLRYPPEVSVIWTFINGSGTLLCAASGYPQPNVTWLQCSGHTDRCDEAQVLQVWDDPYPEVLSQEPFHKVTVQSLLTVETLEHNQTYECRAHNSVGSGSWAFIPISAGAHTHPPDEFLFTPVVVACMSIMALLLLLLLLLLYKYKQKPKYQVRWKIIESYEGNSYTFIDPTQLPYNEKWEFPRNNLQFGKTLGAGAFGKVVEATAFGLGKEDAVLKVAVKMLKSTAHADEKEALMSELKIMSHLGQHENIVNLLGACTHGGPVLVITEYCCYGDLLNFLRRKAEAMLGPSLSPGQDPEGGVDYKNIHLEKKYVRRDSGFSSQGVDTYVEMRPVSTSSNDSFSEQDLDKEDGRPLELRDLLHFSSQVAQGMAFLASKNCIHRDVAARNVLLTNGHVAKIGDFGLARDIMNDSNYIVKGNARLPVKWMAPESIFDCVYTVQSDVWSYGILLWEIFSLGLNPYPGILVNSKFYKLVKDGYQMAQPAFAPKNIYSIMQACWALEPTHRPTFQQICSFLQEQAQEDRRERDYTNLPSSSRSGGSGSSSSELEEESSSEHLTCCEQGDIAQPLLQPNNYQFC

## Cc1nc2c(c(C)c1O)/C(=C/c1ccc3ccccc3n1)C(=O)N2
[1]
  IC50: 12.9 µM
[2]
  IC50: 1 µM
[3]
  IC50: > 10 µM
PANC-1
  survival at 3 mg/kg: 100%
[4]
  IC50: > 10 µM
[5]
  IC50: 5.7 µM
[6]
  IC50: 18.8 µM
